Assay results as given in ChEMBL document CHEMBL3751759, “TRPA1 channels as targets for resveratrol and related stilbenoids” (Bioorg Med Chem Lett, 2016).
pEC50, pIC50: −log10 of the molar value.

What was measured:
[1] = target: T1, Transient receptor potential cation channel subfamily A member 1 (Rattus norvegicus, UniProt Q6RI86); experiment: Antagonist activity at rat TRPA1 expressed in HEK293 cells assessed as inhibition of allyl isothiocyanate-induced increase of intracellular calcium level; format: cell-based
[2] = target: T1, Transient receptor potential cation channel subfamily A member 1; experiment: Agonist activity at rat TRPA1 expressed in HEK293 cells assessed as induction of intracellular calcium level; format: cell-based
[3] = target: Transient receptor potential cation channel subfamily A member 1 (Rattus norvegicus) (UniProt Q6RI86); experiment: Agonist activity at rat TRPA1 expressed in HEK293 cells assessed as induction of intracellular calcium level relative to allyl isothiocyanate; format: cell-based
[4] = target: T2, Transient receptor potential cation channel subfamily V member 1 (Homo sapiens, UniProt Q8NER1); experiment: Agonist activity at human TRPV1 expressed in HEK293 cells assessed as induction of intracellular calcium level relative to […]; format: cell-based
[5] = target: T2, Transient receptor potential cation channel subfamily V member 1; experiment: Antagonist activity at human TRPV1 expressed in HEK293 cells assessed as inhibition of […]-induced increase of intracellular calcium level; format: cell-based
[6] = target: Transient receptor potential cation channel subfamily A member 1 (Homo sapiens, UniProt O75762); experiment: Antagonist activity at human TRPA1 expressed in HEK293 cells assessed as inhibition of allyl isothiocyanate-induced increase of intracellular calcium level; format: cell-based
[7] = target: T2, Transient receptor potential cation channel subfamily V member 1; experiment: Antagonist activity at human TRPV1 expressed in HEK293 cells; format: cell-based
[8] = target: T2, Transient receptor potential cation channel subfamily V member 1; experiment: Antagonist activity at TRPV1 (unknown origin) in DRG neurons
[9] = target: T2, Transient receptor potential cation channel subfamily V member 1; experiment: Antagonist activity at human TRPV1 expressed in HEK293 cells assessed as inhibition of capsaicin-induced increase of intracellular calcium level; format: cell-based
[10] = target: T1, Transient receptor potential cation channel subfamily A member 1; experiment: Agonist activity at rat TRPA1 expressed in HEK293 cells assessed as induction of intracellular calcium level in presence of AITC; format: cell-based
[11] = target: T1, Transient receptor potential cation channel subfamily A member 1; experiment: Antagonist activity at rat TRPA1 expressed in HEK293 cells assessed as inhibition of AITC-induced increase of intracellular calcium level; format: cell-based

T2 sequence (Q8NER1 whole entry): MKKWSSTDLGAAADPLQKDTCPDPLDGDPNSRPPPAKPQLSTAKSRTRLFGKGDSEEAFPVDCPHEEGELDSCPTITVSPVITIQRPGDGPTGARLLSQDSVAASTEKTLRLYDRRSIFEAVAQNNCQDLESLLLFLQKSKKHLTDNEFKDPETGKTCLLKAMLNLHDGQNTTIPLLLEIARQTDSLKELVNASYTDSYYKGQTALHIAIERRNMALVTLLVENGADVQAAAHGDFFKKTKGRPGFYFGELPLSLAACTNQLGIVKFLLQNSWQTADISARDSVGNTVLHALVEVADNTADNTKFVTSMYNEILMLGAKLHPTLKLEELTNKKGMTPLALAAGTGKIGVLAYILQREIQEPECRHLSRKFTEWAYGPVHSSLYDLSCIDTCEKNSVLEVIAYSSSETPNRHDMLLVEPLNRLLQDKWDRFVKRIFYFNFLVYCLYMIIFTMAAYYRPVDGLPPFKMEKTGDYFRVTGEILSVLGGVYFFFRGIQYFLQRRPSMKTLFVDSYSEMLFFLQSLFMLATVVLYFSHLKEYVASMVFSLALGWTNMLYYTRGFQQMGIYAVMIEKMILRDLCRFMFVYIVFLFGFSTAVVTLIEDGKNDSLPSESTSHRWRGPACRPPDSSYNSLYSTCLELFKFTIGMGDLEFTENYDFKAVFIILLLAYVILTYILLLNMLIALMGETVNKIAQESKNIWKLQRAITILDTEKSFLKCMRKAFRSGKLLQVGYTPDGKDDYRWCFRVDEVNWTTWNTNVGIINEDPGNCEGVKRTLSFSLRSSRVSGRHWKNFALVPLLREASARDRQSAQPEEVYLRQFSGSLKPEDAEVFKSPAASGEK
Transient receptor potential cation channel subfamily A member 1 (Rattus norvegicus), sequence (Q6RI86 whole entry): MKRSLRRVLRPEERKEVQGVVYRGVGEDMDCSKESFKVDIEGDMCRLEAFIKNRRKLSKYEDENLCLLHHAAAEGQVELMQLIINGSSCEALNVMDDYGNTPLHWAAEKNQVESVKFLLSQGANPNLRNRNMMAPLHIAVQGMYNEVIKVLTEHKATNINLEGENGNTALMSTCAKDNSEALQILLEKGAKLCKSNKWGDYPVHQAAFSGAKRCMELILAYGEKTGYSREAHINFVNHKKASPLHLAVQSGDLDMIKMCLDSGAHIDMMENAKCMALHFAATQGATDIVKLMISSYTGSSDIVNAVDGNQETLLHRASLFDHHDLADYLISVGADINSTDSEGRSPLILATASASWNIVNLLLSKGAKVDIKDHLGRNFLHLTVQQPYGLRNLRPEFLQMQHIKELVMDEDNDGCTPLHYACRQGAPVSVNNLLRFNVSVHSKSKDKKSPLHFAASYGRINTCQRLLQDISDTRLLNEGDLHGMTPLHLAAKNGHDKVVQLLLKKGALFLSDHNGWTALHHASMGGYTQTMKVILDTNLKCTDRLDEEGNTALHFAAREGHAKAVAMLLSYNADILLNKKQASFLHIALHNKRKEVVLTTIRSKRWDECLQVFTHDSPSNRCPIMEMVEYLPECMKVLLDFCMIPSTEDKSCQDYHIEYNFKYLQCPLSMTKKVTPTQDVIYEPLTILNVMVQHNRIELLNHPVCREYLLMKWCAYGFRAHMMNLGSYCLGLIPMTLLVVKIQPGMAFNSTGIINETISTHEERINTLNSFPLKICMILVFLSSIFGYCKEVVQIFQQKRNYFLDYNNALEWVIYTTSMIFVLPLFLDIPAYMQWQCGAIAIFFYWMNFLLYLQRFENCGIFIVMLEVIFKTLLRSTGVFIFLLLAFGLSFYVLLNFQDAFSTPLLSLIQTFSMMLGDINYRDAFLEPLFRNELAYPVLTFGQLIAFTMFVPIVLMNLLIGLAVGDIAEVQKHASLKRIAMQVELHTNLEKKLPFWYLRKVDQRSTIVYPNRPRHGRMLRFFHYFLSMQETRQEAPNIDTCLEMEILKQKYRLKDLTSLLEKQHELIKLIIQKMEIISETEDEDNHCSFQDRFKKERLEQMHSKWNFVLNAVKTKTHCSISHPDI
T1 sequence (Q6RI86 whole entry): as above
Transient receptor potential cation channel subfamily A member 1 (Homo sapiens, UniProt O75762), sequence (O75762 whole entry): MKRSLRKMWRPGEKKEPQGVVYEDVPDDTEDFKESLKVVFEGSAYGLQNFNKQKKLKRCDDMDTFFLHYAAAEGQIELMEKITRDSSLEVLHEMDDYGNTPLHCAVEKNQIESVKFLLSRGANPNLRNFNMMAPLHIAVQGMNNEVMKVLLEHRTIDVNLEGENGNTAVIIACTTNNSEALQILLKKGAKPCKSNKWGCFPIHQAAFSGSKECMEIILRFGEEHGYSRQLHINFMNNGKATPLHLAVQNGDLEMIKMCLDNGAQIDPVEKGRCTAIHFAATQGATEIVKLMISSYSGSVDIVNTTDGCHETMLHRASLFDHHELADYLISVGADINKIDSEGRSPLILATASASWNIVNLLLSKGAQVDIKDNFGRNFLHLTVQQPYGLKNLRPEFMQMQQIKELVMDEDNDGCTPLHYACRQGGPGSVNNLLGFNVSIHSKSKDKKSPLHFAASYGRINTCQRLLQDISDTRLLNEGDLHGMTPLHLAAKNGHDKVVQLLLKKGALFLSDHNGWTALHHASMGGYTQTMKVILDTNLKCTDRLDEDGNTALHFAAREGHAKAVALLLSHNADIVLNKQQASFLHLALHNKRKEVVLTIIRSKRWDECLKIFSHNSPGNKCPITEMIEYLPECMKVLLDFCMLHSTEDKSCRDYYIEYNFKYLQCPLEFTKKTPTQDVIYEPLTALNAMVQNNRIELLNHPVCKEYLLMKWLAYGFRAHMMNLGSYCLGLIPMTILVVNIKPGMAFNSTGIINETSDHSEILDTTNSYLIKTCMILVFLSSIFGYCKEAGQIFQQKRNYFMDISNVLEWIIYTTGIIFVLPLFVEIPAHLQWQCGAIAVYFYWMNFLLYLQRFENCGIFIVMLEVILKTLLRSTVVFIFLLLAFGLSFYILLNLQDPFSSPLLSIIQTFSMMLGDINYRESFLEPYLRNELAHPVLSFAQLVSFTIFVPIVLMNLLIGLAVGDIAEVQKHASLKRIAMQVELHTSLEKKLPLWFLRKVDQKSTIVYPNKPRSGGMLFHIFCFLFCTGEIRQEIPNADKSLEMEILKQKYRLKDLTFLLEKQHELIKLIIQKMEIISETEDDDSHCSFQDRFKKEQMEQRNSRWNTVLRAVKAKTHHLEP

Row | Compound | pIC50 [1] | pEC50 [2] | Efficacy [3] [%] | Efficacy [4] [%] | pIC50 [5] | pIC50 [6] | pIC50 [7] | pIC50 [8] | pIC50 [9] | pIC50 [10] | pIC50 [11]
1 | COc1ccc(/C=C/c2cccc(OC)c2)cc1 | 5.54 | 5.82 | 75 | < 10 | < 5.00 |  |  |  |  |  | 
2 | Oc1ccccc1/C=C/c1ccccc1 | 5.66 | 6.24 | 88.4 | < 10 | < 5.00 |  |  |  |  |  | 
3 | COc1ccccc1/C=C/c1ccccc1 | 5.77 | 6.06 | 83.4 | < 10 | < 5.00 |  |  |  |  |  | 
4 | COc1ccc(/C=C/c2ccccc2)cc1 | 4.75 | 5.62 | 49 | < 10 | < 5.00 | 4.92 |  |  |  |  | 
5 | COc1ccc(/C=C/c2ccc(OC)cc2)cc1 | 4.97 | 5.38 | 86.7 | < 10 | < 5.00 |  |  |  |  |  | 
6 | COc1ccc(/C=C/c2ccc(O)cc2)cc1 | 5.00 | 5.00 | 72.1 | < 10 | < 5.00 |  |  |  |  |  | 
7 | CC(=O)Oc1ccccc1/C=C/c1ccccc1 | 5.07 | 5.14 | 135 | < 10 | < 5.00 |  |  |  |  |  | 
8 | CC(=O)Oc1ccc(/C=C/c2ccccc2)cc1 | 4.53 | 4.79 | 89.7 | < 10 | < 5.00 |  |  |  |  |  | 
9 | COc1cccc(/C=C/c2ccccc2)c1 | 5.64 | 5.77 | 101 | < 10 | < 5.00 |  |  |  |  |  | 
10 | COc1cc(/C=C/c2ccccc2)cc(OC)c1 [3,5-O-DIMETHYLPINOSYLVIN] | 5.47 | 5.77 | 84.1 | < 10 | < 5.00 |  |  |  |  |  | 
11 | Oc1ccc(/C=C/c2cccc(O)c2)cc1 [(E)-3,4'-STILBENDIOL] | 4.78 | 4.87 | 73.4 | < 10 | < 5.00 |  |  |  |  |  | 
12 | Oc1cccc(/C=C/c2ccccc2)c1 [(E)-3-STILBENOL] | 5.47 | 5.74 | 77.4 | < 10 | < 5.00 |  |  |  |  |  | 
13 | Oc1ccc(/C=C/c2ccccc2)cc1 [(E)-4-STYRYLPHENOL] | 5.26 | 5.08 | 61.9 | < 10 | < 5.00 |  |  |  |  |  | 
14 | COc1cccc(/C=C/c2ccc(O)cc2)c1 [(E)-5-METHOXY-4'-STILBENOL] | 5.00 | 5.18 | 41.8 | < 10 | < 5.00 |  |  |  |  |  | 
15 | COc1cc(O)cc(/C=C/c2ccccc2)c1 [PINOSYLVIN METHYL ETHER] | 5.16 | 5.46 | 71.4 | < 10 | < 5.00 |  | 4.82 | 4.52 | 4.63 |  | 
16 | Oc1cc(O)cc(/C=C/c2ccccc2)c1 [PINOSYLVIN] | 4.92 |  | < 10 | < 10 | < 5.00 |  |  |  |  |  | 
17 | COc1cc(/C=C/c2ccc(O)cc2)cc(OC)c1 [PTEROSTILBENE] | 5.12 | 5.44 | 71.1 | < 10 | < 5.00 |  |  |  |  |  | 
18 | Oc1ccc(/C=C/c2cc(O)cc(O)c2)cc1 [RESVERATROL] | 4.70 |  | < 10 |  |  |  |  |  |  | 5.56 | 6.12
19 | Oc1ccc(/C=C/c2ccc(O)cc2)cc1 [TRANS-4,4'-DIHYDROXYSTILBENE] | 4.60 | 4.96 | 40 | < 10 | < 5.00 |  |  |  |  |  | 
20 | CC(=O)Oc1ccc(/C=C/c2cc(OC(C)=O)cc(OC(C)=O)c2)cc1 [TRIACETYLRESVERATROL] | 4.93 | 5.12 | 127 | < 10 | < 5.00 |  |  |  |  |  | 
21 | COc1ccc(/C=C/c2cc(OC)cc(OC)c2)cc1 [TRISMETHOXYRESVERATROL] | 5.52 | 5.77 | 72.5 | < 10 | < 5.00 |  |  |  |  |  | 
